Patent US20260027221A1, “Targeted Pyrrolobenzodiazapine Conjugates” (BeOne Medicines I GmbH, priority 2023, published 2026)

Assays:
A375 cells = test: Compounds cellular killing in A375 cancer line (Cell Titer-Glo, 6 days); assay type: cell-based, human; conditions: Homo sapiens, A-375, 144 h, 6 days incubation, cell viability by Cell Titer-Glo
Method: (§1) A375 (ATCC, CRL-1619). […] The base medium for A375 is DMEM, high glucose, GlutaMAX™ Supplement (Gibco, 10566024). To make the complete growth medium, fetal bovine serum was added to the base mediumat a final concentration of 10% (Gibco, 10099-141C). The cell line was grown in a humidified 5% CO2 atmosphere at 37° C., and was regularly tested for the presence of mycoplasma with MycoAlert™ PLUS Mycoplasma Detection Kit (Lonza, LT07-710).
(§2) Payload direct killing by compounds 1-1 to 1-22 was assessed in A375 and Calu-6 cancer cell lines. Cells were seeded at 1E3/well (A375) 2E3/well (Calu-6) into 96-well plates (Greiner: 655090), 100 μL/well, and incubated at 37° C., 5% CO2, overnight. Fresh growth medium was added containing varying concentrations of compounds, 50 μL/well, and incubated at 37° C., 5% CO2, for 6 days. The cell viability detected by Cell Titer-Glo (Promega, G7573), 70 μL/well. The plates were allowed to incubate at room temperature for 10 minutes to stabilize the luminescent signal. The plates were analyzed with a microplate reader.

Calu-6 cells = test: Compounds cellular killing in Calu-6 cancer line (Cell Titer-Glo, 6 days); assay type: cell-based, human; conditions: Homo sapiens, Calu-6, 144 h, 6 days incubation, cell viability by Cell Titer-Glo
Method: as §1, with “Calu-6” for “A375”, “HTB-56).” for “CRL-1619).”, “Eagle's Minimum Essential Medium (ATCC, 30-2003).” for “DMEM, high glucose, GlutaMAX™ Supplement (Gibco, 10566024).”
as §2

Row | Structure (SMILES) | EC50 (A375 cells) | Emax (A375 cells) | EC50 (Calu-6 cells) | Emax (Calu-6 cells)
1 | COc1cc2c(cc1OCCCCCOc1cc3c(cc1OC)C(=O)N1CC4(CC4)C[C@H]1C=N3)N=C[C@@H]1Cc3ccccc3CN1C2=O [Compound 1-1, (S)-2-methoxy-3-((5-(((S)-7-methoxy-5-oxo-5,11a-dihydro-1H,3H-spiro[benzo[e]pyrrolo[1,2-a][1,4]diazepine-2,1′-cyclopropan]-8-yl)oxy)pentyl)oxy)-7,12-dihydrobenzo[5,6][1,4]diazepino[1,2-b]isoquinolin-14(6aH)-one] | 5 pM | 99.8% | 2 pM | 99.5%
2 | COc1cc2c(cc1OCCCCCOc1cc3c(cc1OC)C(=O)N1Cc4ccccc4C[C@H]1CN3)N=C[C@@H]1CC3(CC3)CN1C2=O [Compound 1-2, (S)-2-methoxy-3-((5-(((S)-7-methoxy-5-oxo-5,11a-dihydro-1H,3H-spiro[benzo[e]pyrrolo[1,2-a][1,4]diazepine-2,1′-cyclopropan]-8-yl)oxy)pentyl)oxy)-6,6a,7,12-tetrahydrobenzo[5,6][1,4]diazepino[1,2-b]isoquinolin-14(5H)-one] | 118 pM | 98% | 52 pM | 97.6%
3 | COc1cc2c(cc1OCCCCCOc1cc3c(cc1OC)C(=O)N1CC4(CC4)C[C@H]1CN3)N=C[C@@H]1Cc3ccccc3CN1C2=O [Compound 1-3, (S)-2-methoxy-3-((5-(((S)-7-methoxy-5-oxo-5,10,11,11a-tetrahydro-1H,3H-spiro[benzo[e]pyrrolo[1,2-a][1,4]diazepine-2,1′-cyclopropan]-8-yl)oxy)pentyl)oxy)-7,12-dihydrobenzo[5,6][1,4]diazepino[1,2-b]isoquinolin-14(6aH)-one] | 2 pM | 99.9% | 1 pM | 99.3%
4 | COc1cc2c(cc1OCCCCCOc1cc3c(cc1OC)C(=O)N1CC4(CC4)C[C@H]1CN3)NC[C@@H]1Cc3ccccc3CN1C2=O [Compound 1-4, (S)-2-methoxy-3-((5-(((S)-7-methoxy-5-oxo-5,10,11,11a-tetrahydro-1H,3H-spiro[benzo[e]pyrrolo[1,2-a][1,4]diazepine-2,1′-cyclopropan]-8-yl)oxy)pentyl)oxy)-6,6a,7,12-tetrahydrobenzo[5,6][1,4]diazepino[1,2-b]isoquinolin-14(5H)-one] | 140 pM | 90.6% | 77 pM | 94.9%
5 | COc1cc2c(cc1OCCOCCOc1cc3c(cc1OC)C(=O)N1CC4(CC4)C[C@H]1C=N3)N=C[C@@H]1Cc3ccccc3CN1C2=O [Compound 1-5, (S)-2-methoxy-3-(2-(2-(((S)-7-methoxy-5-oxo-5,11a-dihydro-1H,3H-spiro[benzo[e]pyrrolo[1,2-a][1,4]diazepine-2,1′-cyclopropan]-8-yl)oxy)ethoxy)ethoxy)-7,12-dihydrobenzo[5,6][1,4]diazepino[1,2-b]isoquinolin-14(6aH)-one] | > 1000 pM | 39.2% | 165 pM | 90.8%
6 | COc1ccc(C2=CN3C(=O)c4cc(OC)c(OCCCCCOc5cc6c(cc5OC)C(=O)N5CCC7(CC7)C[C@H]5C=N6)cc4NC[C@@H]3C2)cc1 [Compound 1-6, (S)-2-methoxy-3-((5-(((S)-7-methoxy-2-(4-methoxyphenyl)-5-oxo-5,10,11,11a-tetrahydro-1H-benzo[e]pyrrolo[1,2-a][1,4]diazepin-8-yl)oxy)pentyl)oxy)-6a,7,9,10-tetrahydro-12H-spiro[benzo[e]pyrido[1,2-a][1,4]diazepine-8,1′-cyclopropan]-12-one] | 67 pM | 97.5% | 33 pM | 97.6%
7 | C=C1CCN2C(=O)c3cc(OC)c(OCCCCCOc4cc5c(cc4OC)C(=O)N4CC6(CC6)C[C@H]4C=N5)cc3N=C[C@@H]2C1 [Compound 1-7, (S)-7-methoxy-8-((5-(((S)-2-methoxy-8-methylene-12-oxo-6a,7,8,9,10,12-hexahydrobenzo[e]pyrido[1,2-a][1,4]diazepin-3-yl)oxy)pentyl)oxy)-1,11a-dihydro-3H,5H-spiro[benzo[e]pyrrolo[1,2-a][1,4]diazepine-2,1′-cyclopropan]-5-one] | 102 pM | 89% | 17 pM | 97.7%
8 | COc1cc2c(cc1OCc1cccc(COc3cc4c(cc3OC)C(=O)N3CC5(CC5)C[C@H]3C=N4)c1)N=C[C@@H]1CC3(CC3)CN1C2=O [Compound 1-8, (11aS,11a″S)-8,8″-((1,3-phenylenebis(methylene))bis(oxy))bis(7-methoxy-1,11a-dihydro-3H,5H-spiro[benzo[e]pyrrolo[1,2-a][1,4]diazepine-2,1′-cyclopropan]-5-one)] | 29 pM | 99.2% | 5 pM | 98.4%
9 | COc1cc2c(cc1OCc1cccc(COc3cc4c(cc3OC)C(=O)N3CC5(CC5)C[C@H]3CN4)c1)N=C[C@@H]1CC3(CC3)CN1C2=O [Compound 1-9, (S)-7-methoxy-8-((3-((((S)-7-methoxy-5-oxo-5,11a-dihydro-1H,3H-spiro[benzo[e]pyrrolo[1,2-a][1,4]diazepine-2,1′-cyclopropan]-8-yl)oxy)methyl)benzyl)oxy)-1,10,11,11a-tetrahydro-3H,5H-spiro[benzo[e]pyrrolo[1,2-a][1,4]diazepine-2,1′-cyclopropan]-5-one] | 10 pM | 99.9% | 2 pM | 99.7%
10 | COc1cc2c(cc1OCc1cccc(COc3cc4c(cc3OC)C(=O)N3CC5(CC5)C[C@H]3CN4)c1)NC[C@@H]1CC3(CC3)CN1C2=O [Compound 1-10] | > 1000 pM | 42% | 358 pM | 84.7%
11 | COc1cc2c(cc1OCC13CC(COc4cc5c(cc4OC)C(=O)N4CC6(CC6)C[C@H]4C=N5)(C1)C3)N=C[C@@H]1Cc3ccccc3CN1C2=O [Compound 1-11, (S)-2-methoxy-3-((3-((((S)-7-methoxy-5-oxo-5,11a-dihydro-1H,3H-spiro[benzo[e]pyrrolo[1,2-a][1,4]diazepine-2,1′-cyclopropan]-8-yl)oxy)methyl)bicyclo[1.1.1]pentan-1-yl)methoxy)-7,12-dihydrobenzo[5,6][1,4]diazepino[1,2-b]isoquinolin-14(6aH)-one] | 6110 pM | 99.9% | 340 pM | 99.4%
12 | COc1cc2c(cc1OCC13CC(COc4cc5c(cc4OC)C(=O)N4Cc6ccccc6C[C@H]4CN5)(C1)C3)N=C[C@@H]1CC3(CC3)CN1C2=O [Compound 1-12, (S)-2-methoxy-3-((3-((((S)-7-methoxy-5-oxo-5,11a-dihydro-1H,3H-spiro[benzo[e]pyrrolo[1,2-a][1,4]diazepine-2,1′-cyclopropan]-8-yl)oxy)methyl)bicyclo[1.1.1]pentan-1-yl)methoxy)-6,6a,7,12-tetrahydrobenzo[5,6][1,4]diazepino[1,2-b]isoquinolin-14(5H)-one] | 297000 pM | 97.5% | 108000 pM | 99.4%
13 | COc1cc2c(cc1OCCNCCOc1cc3c(cc1OC)C(=O)N1CC4(CC4)C[C@H]1C=N3)N=C[C@@H]1CC3(CC3)CN1C2=O [Compound 1-13, (11aS,11a″S)-8,8″-((azanediylbis(ethane-2,1-diyl))bis(oxy))bis(7-methoxy-1,11a-dihydro-3H,5H-spiro[benzo[e]pyrrolo[1,2-a][1,4]diazepine-2,1′-cyclopropan]-5-one)] | 9120 pM | 100% | 1620 pM | 99.7%
14 | COc1cc2c(cc1OCCCOc1cc3c(cc1OC)C(=O)N1CC4(CC4)C[C@H]1C=N3)N=C[C@@H]1Cc3ccccc3CN1C2=O [Compound 1-14, (S)-2-methoxy-3-(3-(((S)-7-methoxy-5-oxo-5,11a-dihydro-1H,3H-spiro[benzo[e]pyrrolo[1,2-a][1,4]diazepine-2,1′-cyclopropan]-8-yl)oxy)propoxy)-7,12-dihydrobenzo[5,6][1,4]diazepino[1,2-b]isoquinolin-14(6aH)-one] | 33 pM | 98.9% | 10 pM | 99.2%
15 | COc1cc2c(cc1OCCCOc1cc3c(cc1OC)C(=O)N1CC4(CC4)C[C@H]1CN3)N=C[C@@H]1Cc3ccccc3CN1C2=O [Compound 1-15, (S)-2-methoxy-3-(3-(((S)-7-methoxy-5-oxo-5,10,11,11a-tetrahydro-1H,3H-spiro[benzo[e]pyrrolo[1,2-a][1,4]diazepine-2,1′-cyclopropan]-8-yl)oxy)propoxy)-7,12-dihydrobenzo[5,6][1,4]diazepino[1,2-b]isoquinolin-14(6aH)-one] | 134 pM | 99.5% | 45 pM | 99.7%
